Source: patent US20040229960A1, “Compositions and methods of administering tubulin binding agents for the treatment of ocular diseases” (priority 2001, published 2004)

Tests used:
[1] = Primary ocular irritation, topical drops; assay type: in vivo
Protocol: The test article, CA4P, was evaluated for primary ocular irritation. A single 0.2 ml dose of CA4P dilution (0.1, 1.0, 10 and 100 mg/ml) was placed in the lower conjunctival sac of the left eye […]. The contralateral eye received buffered saline solution. Ocular reactions were evaluated at 24, 48 and 72 hours after the sample instillation.

[2] = Biodistribution of 14C-CA4P following intravitreal injection; assay type: in vivo, New Zealand rabbits
Protocol: (§1) ^14C-CA4P (OXiGENE Inc., Watertown, Mass.) was resuspended in 100 ul volume of saline solution and injected with a 30 G needle into the right eyes of anesthesized male New Zealand rabbits (4 months old, 1.8-2.5 kg, n=3 per sample). Three different concentrations of ^14C-CA4P were tested (1, 10, 100 mg/ml) corresponding to doses of 1, 5, and 5 uCi of applied radioactivity respectively. A blank control group was also included. Rabbits were anaesthetized at 1, 6, 24, and 48 hours for blood sampling. After blood collection, the animals were euthanized by Phenobarbital injection and the treated right eyes were removed from all test animals. Ocular tissue samples were dissected from the cornea, aqueous humor, vitreous humor, choroid, or retina, placed in 20-mi glass scintillation vials, vortexed, and incubated for 24 hrs with 500 ul digesting fluid. Plasma was separated from whole blood by centrifugation (1,800 g for 10 minutes). Both ocular tissue samples and plasma were incubated at room temperature with 16 ml of Hionic Fluor™ scintillation fluid for a period of 24 hours prior to radioactivity counting. Each sample was counted for 5 minutes in a Betamatic V counter (Bio-Tek Kontron Instruments, St Quentin en Yvelines, France). The conversion of counts per minute (“cpm”) into disintegrations per minute (“dpm”) was performed automatically by the beta-counter, using calibration curves obtained from ^14C-standards and quenching curves from the respective blank matrices spiked with ^14C-standards. The concentration of drug was determined according to nanogram equivalents of CA4P (ng-Eq/g of tissue) which was calculated from the measured dpm value, the weight of the tissue specimen, and the specific activity of the drug (0.37 mCi/mg), followed by subtraction of the corresponding background value from control eye tissue. A tissue concentration of 1 uM CA4P is equal to […] tissue.

[3] = Biodistribution of 14C-CA4P following subconjunctival injection; assay type: in vivo, New Zealand rabbits
Protocol: as §1
Subconjuctival injections were administered at doses of 0.1, 1, 10, and 100 mg/ml. ^14C-CA4P solutions were formulated with 0.24% 10N KOH and 0.01% Benzalkonium chloride and injected in a volume of 100 ul. Animals were treated at an applied dose of 5 uCi with a single subconjunctival injection in right eyes. After delivery, the eye was gently held closed for 2-5 seconds.

[4] = system: ocular neovascularization; assay: LHP-induced ocular neovascularization, intravenous treatment; assay type: in vivo, rabbit; conditions: 40 mg/kg i.v. once a day for five days; eyes examined seven days later
Protocol: To simulate pathogenic ocular angiogenesis, ocular neovascularization was induced by administration of lipid hydroperoxide (LHP) by intra-corneal injection at a dosage of 30 μg to rabbit eyes. Seven to 14 days later, ocular vessels formed in the injected eyes due to LHP insult. The subjects were divided into two groups; those of one group were given combretastatin A4 disodium phosphate by intravenous administration at a dosage of 40 mg/kg once a day for five days, while a vehicle without combretastatin A4 disodium phosphate was administered to the other group by i.v. administration as a dosage of water for the same time period. The eyes of both groups were examined seven days later.

pathological myopia = assay: Human patient with pathological myopia, phase I/II study; assay type: in vivo
Excerpt: A person was originally examined on Day One after complaining of visual obstructions in their left eye. The patient had received ocular lens implants in both eyes approximately 2 years earlier to correct for myopia. The patient was diagnosed with pathological myopia (also known as proliferative myopathy and myopic macular degeneration) and received a total of four treatments of Photodynamic Therapy (PDT, Visudyne™) in the left eye over the course of the next 8 months. […] In June 2003, the patient was diagnosed with pathological myopia in the right eye as well.
About 3 months later, the patient was enrolled in an open-label, pilot (phase I/II), dose-escalation safety and tolerability study of CA4P. At that time, the patient's best corrected visual acuity was 20/50-3 in the left eye and 20/25-3 in the right eye, as determined by a Snellen back-lit visual acuity test. […] On Day One of the study, the patient began treatment with an intravenous infusion of CA4P (free acid), at a dose of 27 mg/m2, over a 10 minute period. […] The patient received second, third, and fourth infusions of CA4P on Days 8, 15, and 22 of the study, with a maintenance of visual acuity and no active leakage in either eye.

[5] = system: corneal neovascularization; assay: LHP-induced rabbit corneal neovascularization model, IP treatment; assay type: in vivo, New Zealand rabbits; conditions: late intervention, 50 mg/kg IP from Day 10 (Group 4)

COc1ccc(/C=C\c2cc(OC)c(OC)c(OC)c2)cc1OP(=O)([O-])[O-].[Na+].[Na+] [CA4P, combretastatin A4 disodium phosphate]
Irritation (Draize Scores) ([1]; Topical, 0-10 mg): No Irritation
Macroscopic ocular reaction vs control ([1]; all dilutions 0.1-100 mg/ml, single 0.2 ml topical dose, 24-72 h): insignificant
Microscopic ocular irritation vs buffered saline ([1]; topical drops 0.1-100 mg/ml): not considered an irritant
Cmax ([2]; aqueous humor, 1 mg/ml intravitreal): 0.15 µM
Cmax ([2]; aqueous humor, 10 mg/ml intravitreal): 0.79 µM
Cmax ([2]; aqueous humor, 100 mg/ml intravitreal): 460 µM
Cmax ([2]; cornea, 1 mg/ml intravitreal): 95 µM
Cmax ([2]; cornea, 10 mg/ml intravitreal): 969 µM
Cmax ([2]; cornea, 100 mg/ml intravitreal): 5870 µM
Time of highest concentrations of drug in the eye ([2]; intravitreal injection): within the first hour
Cmax ([2]; plasma, 1 mg/ml intravitreal): 0.4 µM
Cmax ([2]; plasma, 10 mg/ml intravitreal): 0.2 µM
Cmax ([2]; plasma, 100 mg/ml intravitreal): 0.78 µM
Cmax ([2]; retina, 1 mg/ml intravitreal): 160 µM
Cmax ([2]; retina, 10 mg/ml intravitreal): 1980 µM
Cmax ([2]; retina, 100 mg/ml intravitreal): 10700 µM
Concentration of drug delivered ([2]; retina, all concentrations tested, intravitreal): > 1 µM
Cmax ([2]; sclera, 1 mg/ml intravitreal): 19 µM
Cmax ([2]; sclera, 10 mg/ml intravitreal): 153 µM
Cmax ([2]; sclera, 100 mg/ml intravitreal): 16100 µM
Cmax ([2]; vitreous, 1 mg/ml intravitreal): 75 µM
Cmax ([2]; vitreous, 10 mg/ml intravitreal): 757 µM
Cmax ([2]; vitreous, 100 mg/ml intravitreal): 10000 µM
Cmax ([3]; choroid, 0.1 mg/ml subconjunctival): 2300 nM
Cmax ([3]; choroid, 1 mg/ml subconjunctival): 1900 nM
Cmax ([3]; choroid, 10 mg/ml subconjunctival): 188000 nM
Cmax ([3]; choroid, 100 mg/ml subconjunctival): 908000 nM
Concentration of drug delivered ([3]; cornea, retina and choroid, 100, 10 and 1 mg/ml, subconjunctival): > 1 µM
Cmax ([3]; cornea, 0.1 mg/ml subconjunctival): 1500 nM
Cmax ([3]; cornea, 1 mg/ml subconjunctival): 13000 nM
Cmax ([3]; cornea, 10 mg/ml subconjunctival): 143000 nM
Cmax ([3]; cornea, 100 mg/ml subconjunctival): 761000 nM
Cmax ([3]; plasma, 0.1 mg/ml subconjunctival): 17 nM
Cmax ([3]; plasma, 1 mg/ml subconjunctival): 25 nM
Cmax ([3]; plasma, 10 mg/ml subconjunctival): 900 nM
Cmax ([3]; plasma, 100 mg/ml subconjunctival): 8000 nM
Cmax ([3]; retina, 0.1 mg/ml subconjunctival): 130 nM
Cmax ([3]; retina, 1 mg/ml subconjunctival): 1700 nM
Cmax ([3]; retina, 10 mg/ml subconjunctival): 39600 nM
Cmax ([3]; retina, 100 mg/ml subconjunctival): 174000 nM
Time of highest concentrations of drug in the eye ([3]; subconjunctival injection): within the first hour
Cmax ([3]; vitreous, 0.1 mg/ml subconjunctival): 5 nM
Cmax ([3]; vitreous, 1 mg/ml subconjunctival): 20 nM
Cmax ([3]; vitreous, 10 mg/ml subconjunctival): 2100 nM
Cmax ([3]; vitreous, 100 mg/ml subconjunctival): 15700 nM
Reduction of vessels [4]: ≥ 40%
Improvement of Snellen visual acuity, left eye (pathological myopia; 27 mg/m2 i.v. weekly): improved by five lines to 20/20 vision
Leakage in fluorescein angiography of either eye (pathological myopia; Day 8 after 27 mg/m2 i.v. infusion, active leakage in both eyes at baseline): No active leakage was observed
Vessel Length on Day 24 [5]: 1.4 ± 0.46 mm
